{"source": "patent US6689302B2", "about": "“Method of making an antimicrobial tympanostomy tube” (Medtronic Xomed, Inc., priority 1993, dated 2004)", "origin": "cited, not measured here", "test_system": "postoperative otorrhea", "conditions": "Baker and Chole trial; ophthalmic solution used as otic drops"}
{"substance": "Gentamicin", "values": [{"measurement": "incidence of infection", "value": "significantly reduced"}]}
